In patent US20170157301A1, “LEOLIGIN DERIVATIVES AS SMOOTH MUSCLE CELL PROLIFERATION INHIBITORS” (TECHNISCHE UNIVERSITAET WIEN, priority 2014, published 2017):

Columns and labels:
[1] = tested on: SMCs in relation to ECs; experiment: activity ratio: efficiency towards SMCs / efficiency towards ECs; format: cell-based; conditions: for a.r. code: activity ratio class, order in Table 1 follows the calculated values
Description: For determination of vascular SMC proliferation, 0.5×10^4 viable rat aortic SMCs per well were seeded in SMC growth medium (DMEM/F12 medium with 20% serum, 30 μg/mL Gentamicin and 15 ng/mL Amphotericin) in 96-well plates. 24 h later, the medium was removed, the cells were washed once with SMC starvation medium (DMEM/F12 medium with 0.1% serum, 0.2% BSA, 30 μg/mL Gentamicin and 15 ng/mL Amphotericin) and incubated in starvation medium for further 24 h.
The quiescent cells were then pretreated for 30 min with the test compounds and induced to proliferate with 20 ng/mL platelet-derived growth factor (PDGF). Unstimulated cells were utilized for normalization and estimation of the basal level of proliferation. The final concentration of the solvent vehicle, dimethyl sulfoxide (DMSO), was the same (0.1%) in all wells. 48 h later, the SMC proliferation was quantified by resazurin dye conversion for 2 h as previously described (H. Joa et al., J. Nat. Prod. 74(6), 1513-6 (2011)).
For determination of endothelial cell proliferation, 0.5×10^4 HUVECtert immortalized human umbilical vein endothelial cells (H. B. Schiller et al., Mol. Biol. Cell. 20(3), 745-756 (2009)) were seeded in 96-well plates for 24 h in HUVEC Complete Medium (EBM™ growth medium supplemented with 10% fetal bovine serum, EBM™ SingleQuots (Lonza, Basel, Switzerland), 100 U/mL benzylpenicillin, 100 μg/mL streptomycin, and 1% amphotericin). Afterwards, the medium was exchanged with fresh HUVEC Complete Medium and cells were treated with the indicated compounds for 48 h. After the end of the incubation period, the medium was removed, the cells were washed once with 200 μL/well PBS, and treated with 150 μL HUVEC Complete Medium containing 10 μg/mL resazurin. 2 h later, the fluorescence was measured at a wavelength of 580 nm, with excitation wavelength 535 nm in a 96-well plate reader (Tecan GENios Pro; Tecan Group Ltd., Mannedorf, Switzerland).
In every case, the percentage of viable cells was subtracted from 1, in order to obtain a measure of efficiency of the test compounds towards each particular type of cells, and subsequently, the efficiency quotient towards SMCs and ECs was calculated and taken as the “activity ratio” and thus as a measure of selective efficiency of each test compound towards SMCs in relation to ECs. For example, the synthetic Leoligin with the bio ID 2418 prepared in Comparative Example 27 as compound 10-22 gave the following results:
Due to the usual fluctuations in determining surviving cells, which amount to approximately ±10%, and due to the relatively strong resulting fluctuations in calculating quotients—especially if the inhibitory effect of said novel compounds towards ECs is very poor—said threshold value of 1.50 for the activity ratio, as already mentioned above, was introduced.
In the following, a table listing every compound prepared in examples and comparative Examples for which an activity ratio (a.r.) of >1.0 was determined, is given.

[2] = tested on: rat aortic SMCs; experiment: vascular SMC proliferation (PDGF-induced, resazurin conversion); format: cell-based
[3] = tested on: SMCs; experiment: IC50 of Leoligin for SMCs (A. Knolz, Master's Thesis, University of Innsbruck, 2008); format: cell-based
[4] = tested on: SMCs; conditions: cited from earlier work
[5] = tested on: ECs; conditions: cited from earlier work
[6] = tested on: HUVECtert immortalized human umbilical vein endothelial cells; experiment: endothelial cell proliferation (resazurin); format: cell-based

SMILES	a.r. code [1]	other results
COc1ccc(C[C@H]2CO[C@H](c3ccc(F)cc3)[C@H]2COC(=O)C2CCCC2)cc1OC [Example 29, ((2S,3R,4R)-4-(3,4-dimethoxybenzyl)-2-(4-fluorophenyl)tetrahydrofuran-3-yl)-methyl cyclopentanecarboxylate]	A (a.r. ≧ 1.50)	–
COc1ccc([C@H]2OC[C@H](Cc3ccc(C(C)(C)C)cc3)[C@@H]2COC(=O)C2CCCC2)cc1OC [Example 30, ((2S,3R,4R)-4-(4-(tert-butyl)benzyl)-2-(3,4-dimethoxyphenyl)tetrahydrofuran-3-yl)methyl cyclopentanecarboxylate]	AA (a.r. ≧ 2.0)	–
CCC(CC)C(=O)OC[C@H]1[C@@H](Cc2ccc(OC)c(OC)c2)CO[C@@H]1c1ccc(F)cc1 [Example 31, ((2S,3R,4R)-4-(3,4-dimethoxybenzyl)-2-(4-fluorophenyl)tetrahydrofuran-3-yl)-methyl 2-ethylbutanoate]	A (a.r. ≧ 1.50)	–
COc1ccc(C[C@H]2CO[C@H](c3ccc(F)cc3)[C@H]2COC(=O)CC(C)C)cc1OC [Example 32, ((2S,3R,4R)-4-(3,4-dimethoxybenzyl)-2-(4-fluorophenyl)tetrahydrofuran-3-yl)-methyl 3-methylbutanoate]	AAA (a.r. ≧ 5.0)	–
COc1ccc(C[C@H]2CO[C@H](c3ccc(F)cc3)[C@H]2COC(=O)C2CCC2)cc1OC [Example 33, ((2S,3R,4R)-4-(3,4-dimethoxybenzyl)-2-(4-fluorophenyl)tetrahydrofuran-3-yl)methyl cyclobutanecarboxylate]	AA (a.r. ≧ 2.0)	–
C/C=C(\C)C(=O)OC[C@H]1[C@@H](Cc2ccc(OC)c(OC)c2)CO[C@@H]1c1cc(OC)c(OC)c(OC)c1 [Example 34, (E)-((2S,3R,4R)-4-(3,4-dimethoxybenzyl)-2-(3,4,5-trimethoxyphenyl)tetra-hydrofuran-3-yl)methyl 2-methylbut-2-enoate]	AAA (a.r. ≧ 5.0)	–
COc1ccc(C[C@H]2CO[C@H](c3cc(OC)c(OC)c(OC)c3)[C@H]2COC(=O)C2=CCCC2)cc1OC [Example 35, ((2S,3R,4R)-4-(3,4-dimethoxybenzyl)-2-(3,4,5-trimethoxyphenyl)tetrahydro-furan-3-yl)methyl cyclopent-1-enecarboxylate]	AA (a.r. ≧ 2.0)	–
COc1ccc(C[C@H]2CO[C@H](c3cc(OC)c(OC)c(OC)c3)[C@H]2COC(=O)c2ccccc2)cc1OC [Example 36, ((2S,3R,4R)-4-(3,4-dimethoxybenzyl)-2-(3,4,5-trimethoxyphenyl)tetrahydro-furan-3-yl)methyl benzoate]	A (a.r. ≧ 1.50)	–
CCCC(=O)OC[C@H]1[C@@H](Cc2ccc(OC)c(OC)c2)CO[C@@H]1c1cc(OC)c(OC)c(OC)c1 [Example 37, ((2S,3R,4R)-4-(3,4-dimethoxybenzyl)-2-(3,4,5-trimethoxyphenyl)tetrahydro-furan-3-yl)methyl butyrate]	AAA (a.r. ≧ 5.0)	–
COc1ccc(C[C@H]2CO[C@H](c3cc(OC)c(OC)c(OC)c3)[C@H]2COC(=O)C(C)C)cc1OC [Example 38, ((2S,3R,4R)-4-(3,4-dimethoxybenzyl)-2-(3,4,5-trimethoxyphenyl)tetrahydro-furan-3-yl)methyl isobutyrate]	AAA (a.r. ≧ 5.0)	–
COc1ccc(C[C@H]2CO[C@H](c3cc(OC)c(OC)c(OC)c3)[C@H]2COC(=O)C2CCCCC2)cc1OC [Example 39, ((2S,3R,4R)-4-(3,4-dimethoxybenzyl)-2-(3,4,5-trimethoxyphenyl)tetrahydro-furan-3-yl)methyl cyclohexanecarboxylate]	A (a.r. ≧ 1.50)	–
COc1ccc(C[C@H]2CO[C@H](c3cc(OC)c(OC)c(OC)c3)[C@H]2COC(=O)C2CCCC2)cc1OC [Example 40, ((2S,3R,4R)-4-(3,4-dimethoxybenzyl)-2-(3,4,5-trimethoxyphenyl)tetrahydro-furan-3-yl)methyl cyclopentanecarboxylate]	AA (a.r. ≧ 2.0)	–
COc1ccc(C[C@H]2CO[C@H](c3cc(OC)c(OC)c(OC)c3)[C@H]2COC(=O)C2CC2)cc1OC [Example 41, ((2S,3R,4R)-4-(3,4-dimethoxybenzyl)-2-(3,4,5-trimethoxyphenyl)tetrahydro-furan-3-yl)methyl cyclopropanecarboxylate]	AA (a.r. ≧ 2.0)	–
C=CCOC[C@H]1[C@@H](Cc2ccc(OC)c(OC)c2)CO[C@@H]1c1ccc(OC)c(OC)c1 [Example 42, (2S,3R,4R)-3-((allyloxy)methyl)-4-(3,4-dimethoxybenzyl)-2-(3,4-dimethoxy-phenyl)tetrahydrofuran]	AAA (a.r. ≧ 5.0)	–
C#CCOC[C@H]1[C@@H](Cc2ccc(OC)c(OC)c2)CO[C@@H]1c1ccc(OC)c(OC)c1 [Example 43, (2S,3R,4R)-4-(3,4-dimethoxybenzyl)-2-(3,4-dimethoxyphenyl)-3-((prop-2-yn-1-yloxy)methyl)tetrahydrofuran]	A (a.r. ≧ 1.50)	–
C/C=C(/C)C(=O)OC[C@H]1[C@@H](Cc2ccc(OC)c(OC)c2)CO[C@@H]1c1ccc(OC)c(OC)c1 [Leoligin, (Z)-((2S,3R,4R)-4-(3,4-dimethoxybenzyl)-2-(3,4-dimethoxyphenyl)tetrahydro-furan-3-yl)methyl 2-methylbut-2-enoate]	–	Efficiency towards SMCs ([2]; 1 minus fraction of surviving SMCs): 1-0.81 = 0.19; Percentage of surviving SMCs ([2]; rat aortic SMCs, 20 ng/mL PDGF, 48 h, resazurin): 0.81 (81%); inverse value of IC50 ratio (measure for selective inhibition of ECs compared to SMCs) ([3]; from cited IC50 values): 3.0; IC50 ratio (measure for selective inhibition of SMCs compared to ECs) ([3]; from cited IC50 values for ECs and SMCs): 0.33; IC50 [4]: 54.5 µM; IC50 [5]: 17.9 µM; Efficiency towards ECs ([6]; 1 minus fraction of surviving ECs): 1-0.51 = 0.49; Percentage of surviving ECs ([6]; HUVECtert, 48 h, resazurin): 0.51 (51%); inverse value of activity ratio (factor of selective inhibition of ECs relative to SMCs) ([1]; inverse of 0.39): approximately 2.5
